{
  "source": "patent US5168102A",
  "about": "“Endocrine manipulation to improve body composition of poultry” (priority 1990, dated 1992)",
  "key": {"[1]": {"experiment": "Example 1: plasma hormone concentrations (radioimmunoassays)", "description": "The purpose of this study was to determine the effect manipulating blood levels of thyroid hormones and/or growth hormone on growth performance and body composition of broiler chickens. […] Purified natural chicken growth hormone (ncGH) was obtained from the Research and Education Center, Harbor-UCLA Medical Center, Torrance, Calif. […] The premix (200 g) was then used to prepare 50 kg batches of each experimental diet according to the formula for broiler-finisher ration described in Table 1. The diet containing 0.5% PTU was prepared by mixing 250 g of PTU into 49.75 kg of the basal ration (Table 1).\nBroiler cockerels (Ross X Arbor Acre strain) were raised to 3 weeks-of-age in a battery-brooder and then transferred to wire grow-out cages (4 birds/pen) held in two controlled-environment rooms (10 pens/room). Beginning at 3 weeks of age, eight birds (2 pens of 4 birds) were randomly assigned to each of 10 treatments. The chickens were provided the experimental diets and water ad libitum. […] For injection, the ncGH was reconstituted in sterile 0.025M sodium bicarbonate buffer (pH 9.8). The 10 treatments were administered for 21 days (i.e., from 3 to 6 weeks of age).\nMeasurement of body weight and feed consumption at weekly intervals allowed calculation of the average daily gain (ADG, g/bird/day), average daily feed consumption (ADFC, g/bird/day) and the feed-to-gain ratio (FIG, kg feed/kg gain) over the 21 day experimental period. Blood samples were taken each week (4, 5, and 6 weeks) just before (pre-injection) and 4 hours post-injection of ncGH. […] At the conclusion of the study, birds were killed and the carcasses frozen for proximate analysis. The frozen carcasses were ground in a meat grinder and aliquots of each ground carcass taken for determination of moisture, protein, fat and ash by established analytical procedures (Official Method of Analysis, Edition 13, W. Horwitz ed., Association of Official Analytical Chemist, Washington, D.C., 1980). Body composition data are presented as a percent of live weight at 6 weeks-of-age. Least squares regression analysis was used to test for significant differences (P<0.05) due treatment."}, "[2]": {"experiment": "Example 2: growth and feed efficiency, dietary T3 and ncGH injection", "assay_type": "in vivo, broiler cockerels (Ross X Arbor Acre)", "experimental": "Forty-eight 3-week-old broiler cockerels (Ross X Arbor Acre) were randomly divided into four treatment groups that contained three pens of four birds. The birds were housed in a controlled-environment room under a 20 hour light/4 hour dark cycle with feed and water provided ad libitum.\nThe preparation of ncGH used in this study was from the same lot used in Example 1.\nBody weights and feed consumption was determined at weekly intervals although the ADG, ADFC and FTG ratio was determined over the 21 day period. […] At the conclusion of the study (6 weeks-of-age), birds were killed and the abdominal fat removed and weighed. The liver and abdominal fat were returned to the carcass which was frozen for proximate analysis as described in […]"}, "[3]": {"experiment": "Example 3: final body weight and relative weights of liver, abdominal fat and muscles", "assay_type": "in vivo, broiler cockerels", "experimental": "Day-old broiler cockerels were randomly assigned to 24 pens (5 birds/pen) in a battery brooder. The total duration of the bird management period lasted from 7 to 8 weeks. Hereafter, the end of the first week of life of the birds is referred to as week no. 1 (i.e. 7 days of life), the end of the second week as week no. 2, etc. At week no. 3, four birds from each pen were transferred to wire grow-out cages. […] 5 to week no. 7 (4 pens/treatment). Body weight and feed consumption were determined at weekly intervals. A 5 ml blood sample was obtained from each bird at week no. 7 and stored at -20° C. until assayed for plasma hormones.\nAt week no. 7 (49 days-of-age), one-half of the birds (8 birds/treatment) were killed for measurement of the abdominal fat pad and liver weights. The muscles were removed, weighed, frozen in liquid N2 and stored at -20° C. until analyzed. At 51 days-of-age, groups of 4 birds per treatment were given a subcutaneous infusion of 4 μCi/Kg of 14C-L-tyrosine emulsified in sesame seed oil and immediately placed in metabolism cages. The expired CO2 was trapped in 15 ml of scrubbing solution (1:2 ethanolamine/methyl cellusolve) and the tubes were changed every 15 minutes for 90 minutes. At 90 minutes, the birds were removed from the metabolism cages and blood was obtained via cardiac puncture. Birds were then sacrificed by cervical dislocation and the muscles were removed, weighed, frozen in liquid N2 and stored at -20° C. until analyzed. Radioactivity in the samples containing trapped CO2 was counted for 10 minutes using a liquid scintillation spectrophotometer. At 54 days-of-age, groups of 4 birds per treatment were killed, the muscles were dissected, weighed, and frozen until analyzed.\nThe right breast muscle, i.e. BM (Pectoralis major) and right leg muscles, i.e. LM (gastrocnemius and peroneus longus) were dissected out from the birds, weighed and immediately frozen in liquid nitrogen and stored at -20° C. until analyzed for tyrosine content as specific radioactivity of tyrosine. All muscle tissues were analyzed for protein content; only tissues from isotope experiments were analyzed for tyrosine content as specific radioactivity of tyrosine."}, "[4]": {"description": "Referring now to broiler chickens as a benchmark for the beneficial effects of this invention, it must be noted that these chickens grow from a weight of 30 to 50 grams at hatching to about 1.5-3 or even as much as 5 kilograms of body weight at market age. Of this market weight, 15-20 wt.-% is protein, 2-3 wt.-% is inorganic (showing up as ash in proximate analysis of body composition), and more than 10 wt.-% (e.g. 10-20 wt.-%) is fat, which means that the protein:fat ratio (by weight) is likely to be at or below 1.5:1 and certainly well below 2:1."}, "[5]": {"settings": "exogenous; cited from earlier work"}},
  "note": "Several values for one entry are separate records, joined by “and”; a condition that tells them apart may be missing. Equal entries are not always repeated. Entries after “also recorded” stand apart in the source; their conditions may differ. Where two headings read alike, the source gives them in different places.",
  "data": [
    {"smiles": "N[C@@H](Cc1cc(I)c(Oc2ccc(O)c(I)c2)c(I)c1)C(=O)O", "note": "[T3, 3,3',5-triiodo-L-thyronine]", "values": [
      {"measurement": "I/G Molar Ratio", "setting": "[1]; Group 1, dietary, N = 24", "value": 0.51},
      {"measurement": "plasma Glucagon (G)", "setting": "[1]; Group 1, dietary, N = 24", "value": 491, "unit": "pg/mL"},
      {"measurement": "plasma Insulin (I)", "setting": "[1]; Group 1, dietary, N = 24", "value": 409, "unit": "pg/mL"},
      {"measurement": "effect on insulin and glucagon secretion", "setting": "[1]; dietary T3 / elevated plasma T3", "value": "inhibit insulin secretion whereas glucagon secretion is enhanced; also recorded: depresses insulin secretion while glucagon secretion is increased"},
      {"measurement": "plasma I/G molar ratio, fold lower", "setting": "[1]; vs CF birds (P<0.05)", "value": 4.3, "unit": "times"},
      {"measurement": "plasma GH level, reduction", "setting": "[1]; vs CF treatment", "value": 32, "unit": "%"},
      {"measurement": "plasma T4 level, reduction", "setting": "[1]; vs average of CF and TRH treatments (P<0.05)", "value": 58, "unit": "%"},
      {"measurement": "ADFC", "setting": "[2]; 1 ppm T3 and/or ncGH 100 μg/kg/day, 21 days", "value": "117.9 ± 0.8", "unit": "g/bird/day"},
      {"measurement": "ADG", "setting": "[2]; 1 ppm T3 in feed and/or ncGH 100 μg/kg/day i.m., 3 to 6 weeks, mean ±SEM of 3 pens", "value": "52.6 ± 1.0", "unit": "g/bird/day"},
      {"measurement": "effect on ADG, ADFC and FTG ratio", "setting": "[2]; 21 days", "value": "not affected"},
      {"measurement": "relative weights of liver (RLW), right breast muscle (RBM), right leg muscle (RLM)", "setting": "[3]; 0, 0.25, 1 and 4 ppm", "value": "not different among treatments"},
      {"measurement": "abdominal fat weight, reduction", "setting": "[3]; 0.25 ppm", "value": "22.2% and > 20% and 22%"},
      {"measurement": "effect on final body weight", "setting": "[3]; 0.25 ppm", "value": "no significant adverse effect in final body weight; also recorded: do not appear to have a statistically significant effect upon final body weight"},
      {"measurement": "BW (final body weight)", "setting": "[3]; 0.25 ppm of feed", "value": 2.42, "unit": "kg"},
      {"measurement": "RBM (right breast muscle)", "setting": "[3]; 0.25 ppm of feed", "value": 5.60, "unit": "% BW"},
      {"measurement": "RLM (right leg muscle)", "setting": "[3]; 0.25 ppm of feed", "value": 0.71, "unit": "% BW"},
      {"measurement": "RLW (relative liver weight)", "setting": "[3]; 0.25 ppm of feed", "value": 2.24, "unit": "% BW"},
      {"measurement": "effect on final body weight", "setting": "[3]; 1.0 ppm", "value": "significant sacrifice of final body weight"},
      {"measurement": "abdominal fat weight, reduction", "setting": "[3]; 1.0 ppm (p<0.05)", "value": 26.6, "unit": "%"},
      {"measurement": "Abdom. Fat", "setting": "[3]; 1.0 ppm of feed", "value": 1.88, "unit": "% BW"},
      {"measurement": "BW (final body weight)", "setting": "[3]; 1.0 ppm of feed", "value": 2.33, "unit": "kg"},
      {"measurement": "RBM (right breast muscle)", "setting": "[3]; 1.0 ppm of feed", "value": 5.36, "unit": "% BW"},
      {"measurement": "RLM (right leg muscle)", "setting": "[3]; 1.0 ppm of feed", "value": 0.76, "unit": "% BW"},
      {"measurement": "RLW (relative liver weight)", "setting": "[3]; 1.0 ppm of feed", "value": 2.14, "unit": "% BW"},
      {"measurement": "effect on final body weight", "setting": "[3]; 4.0 ppm", "value": "excessive loss of final body weight"},
      {"measurement": "abdominal fat weight, reduction", "setting": "[3]; 4.0 ppm (p<0.05)", "value": 63.3, "unit": "%"},
      {"measurement": "final body weight, reduction", "setting": "[3]; 4.0 ppm (p<0.05)", "value": 22.2, "unit": "%"},
      {"measurement": "Abdom. Fat", "setting": "[3]; 4.0 ppm of feed", "value": 0.94, "unit": "% BW"},
      {"measurement": "BW (final body weight)", "setting": "[3]; 4.0 ppm of feed", "value": 1.99, "unit": "kg"},
      {"measurement": "RBM (right breast muscle)", "setting": "[3]; 4.0 ppm of feed", "value": 5.81, "unit": "% BW"},
      {"measurement": "RLM (right leg muscle)", "setting": "[3]; 4.0 ppm of feed", "value": 0.75, "unit": "% BW"},
      {"measurement": "RLW (relative liver weight)", "setting": "[3]; 4.0 ppm of feed", "value": 2.18, "unit": "% BW"},
      {"measurement": "effect on weight gain", "setting": "[4]; 0.1 ppm", "value": "no significant adverse effect upon weight gain can be detected"},
      {"measurement": "protein content of the carcass relative to fat content", "setting": "[4]; 0.1 ppm", "value": "improved relative to fat content"},
      {"measurement": "effect on growth rate", "setting": "[4]; 0.25 ppm", "value": "virtually no statistically significant adverse effect on growth rate"},
      {"measurement": "effect on weight gain", "setting": "[4]; 1 ppm", "value": "some deviation from normal weight gain is observed"},
      {"measurement": "growth deficit of hypophysectomized chickens", "setting": "[5]", "value": "correct the growth deficit"}
    ]}
  ]
}
